From patent EP0059057A1 (priority 1981, dated 1982)
Like-named read-outs stand apart in the source and are kept apart here.

Columns and labels:
[1] = tested on: culture filtrate prepared from an enteropathogenic strain of E. coli; assay type: in vivo; details: infant mice
[2] = tested on: Heat stable E. coli enterotoxin from E. coli strain pl6; details: 100 µg/kg
[3] = tested on: culture filtrate prepared from an enteropathogenic strain of E. coli; details: piglets; for Mean Scour Score ± SEM drug treated: score 0 - 3
[4] = 1 mg/kg p.o., 45 mins prior to challenge
[5] = 5 mg/kg p.o., 45 mins prior to challenge
[6] = 10 mg/kg p.o., 45 mins prior to challenge
[7] = 20 mg/kg p.o., 45 mins prior to challenge
[8] = 100 mg/kg p.o., 45 mins prior to challenge
[9] = 1 mg/kg po., duration of test 6 h
[10] = 1 mg/kg po., duration of test 12 h
[11] = 10 mg/kg po., duration of test 12 h
[12] = 2 x 5 mg/kg po., duration of test 12 h

CNCC(O)c1ccc(O)c(O)c1 (stereo not shown) [Adrenaline]
% Inhibition ([1]; 0.5 mg/kg p.o., 45 mins prior to challenge): 8%
% Inhibition [1, 4]: 18%
% Inhibition [1, 5]: 54%
% Inhibition [1, 6]: 54%
% Inhibition [1, 7]: 69%
% Inhibition [1, 8]: 101%
Secretion/(ml/30 min) (mean ± SEM [n=10) ([2]; time 0-30 min after toxin (before drug; drug administered 30 min after toxin)): 31 ± 3 ml/30 min
Secretion/(ml/30 min) (mean ± SEM [n=10) ([2]; time 30-60 min after toxin): 10 ± 1 ml/30 min
Secretion/(ml/30 min) (mean ± SEM [n=10) ([2]; time 60-90 min after toxin): 8 ± 2 ml/30 min
Secretion/(ml/30 min) (mean ± SEM [n=10) ([2]; time 90-120 min after toxin): 6 ± 2 ml/30 min
Secretion/(ml/30 min) (mean ± SEM [n=10) ([2]; time 120-150 min after toxin): 8 ± 3 ml/30 min
Secretion/(ml/30 min) (mean ± SEM [n=10) ([2]; time 150-180 min after toxin): 7 ± 2 ml/30 min
Secretion/(ml/30 min) (mean ± SEM [n=10) ([2]; time -30-0 min after toxin (before toxin and drug)): 3 ± 1 ml/30 min

CNCC(O)c1ccc(O)c(O)c1.O=C(O)C(O)C(O)C(=O)O (stereo not shown) [Adrenaline Bitartrate]
% Inhibition [1, 4]: 37%
% Inhibition [1, 5]: 36%
% Inhibition [1, 6]: 58%
% Inhibition [1, 7]: 70%
% Inhibition [1, 8]: 96%
% Inhibition of Scour [3, 9]: 11%
Mean Scour Score ± SEM drug treated [3, 9]: 2.0 ± 0.2
% Inhibition of Scour [3, 10]: 16%
Mean Scour Score ± SEM drug treated [3, 10]: 1.8 ± 0.1
% Inhibition of Scour [3, 11]: 98%
Mean Scour Score ± SEM drug treated [3, 11]: 0 ± 0
% Inhibition of Scour [3, 12]: 96%
Mean Scour Score ± SEM drug treated [3, 12]: 0.1 ± 0.1

NC[C@H](O)c1ccc(O)c(O)c1 [Noradrenaline]
% Inhibition ([1]; 10 mg/kg p.o., in 6mM ascorbate): 40%

C[C@H](N)[C@H](O)c1cccc(O)c1 [Metoraminol]
% Inhibition ([1]; 200 mg/kg p.o., 45 mins prior to challenge): 45%
